{
  "source": "patent US5693524A",
  "about": "“Anticoccidial composition of UK-61 689 and Actinomadura mycelium” (Pfizer Inc., priority 1995, dated 1997)",
  "key": {"coccidiosis": {"test_system": "coccidiosis", "conditions": "EP application 169011; cited from earlier work"}, "[1]": {"test_system": "Gram-positive microorganisms", "test": "Inhibitory action against growth of Gram-positive microorganisms in vitro", "assay_type": "cell-based", "experimental": "In Table I, below, the results of in vitro tests are summarized. For this test each organism is inoculated in a series of test tubes containing nutrient medium and varying concentrations of Antibiotic UK-61,689 to determine the minimal concentration of the compound in g/ml which inhibits the growth of the organism over a period of 24 hours (MIC)."}, "E. brunetti": {"test_system": "E. brunetti", "test": "Efficacy against coccidial infection in chickens, E. brunetti (lesion scores 0 to 3)", "conditions": "in diet at levels of 15 to 120 ppm"}, "Treponema hyodysenteriae": {"test_system": "Treponema hyodysenteriae", "test": "In vitro minimal inhibitory concentration (MIC), Treponema hyodysenteriae", "assay_type": "cell-based"}, "E. acervulina": {"test_system": "E. acervulina", "test": "Efficacy against coccidial infection in chickens, E. acervulina (lesion scores 0 to 3)", "conditions": "in diet at levels of 15 to 120 ppm, evaluated after five days"}, "E. necatrix": {"test_system": "E. necatrix", "test": "Efficacy against coccidial infection in chickens, E. necatrix (lesion scores 0 to 3)", "conditions": "in diet at levels of 15 to 120 ppm"}, "Clostridium perfringens": {"test_system": "Clostridium perfringens", "test": "microbe, parasite or virus in culture", "assay_type": "cell-based", "conditions": "24 h"}, "[2]": {"test_system": "coccidial infections in poultry", "test": "Activity against coccidial infections in poultry (lesion scores)"}, "E. maxima": {"test_system": "E. maxima", "test": "Efficacy against coccidial infection in chickens, E. maxima (lesion scores 0 to 3)", "conditions": "in diet at levels of 15 to 120 ppm"}, "Eimeria tenella": {"test_system": "Eimeria tenella", "test": "Efficacy against coccidial infection in chickens, Eimeria tenella (lesion scores 0 to 4)", "conditions": "in diet at levels of 15 to 120 ppm"}, "Actinomyces pyogenes": {"test_system": "Actinomyces pyogenes", "test": "In vitro minimal inhibitory concentration (MIC), Actinomyces pyogenes", "assay_type": "cell-based", "conditions": "24 hours"}},
  "note": "Like-named read-outs stand apart in the source and are kept apart here.",
  "data": [
    {"compound": "COC1CCC(OC2CC(C3OC(C)(OC)C(C)CC3C)OC2C2(C)CCC(C3(C)CCC4(CC(O)C(C)C(C(C)C5OC(O)(CC(=O)O)C(C)C(OC6CCC(OC)C(C)O6)C5OC)O4)O3)O2)OC1C", "note": "(stereo not shown) [CP-70,228]", "values": [
      {"measurement": "antibiotic / anticoccidial effectiveness", "setting": "coccidiosis", "value": "antibiotically effective in controlling coccidiosis"}
    ]},
    {"compound": "COC1CCC(OC2CC(C3OC(C)(OC)C(C)CC3C)OC2C2(C)CCC(C3(C)CCC4(CC(OC)C(C)C(C(C)C5OC(O)(CC(=O)O)C(C)C(OC6CCC(OC)C(C)O6)C5OC)O4)O3)O2)OC1C", "note": "(stereo not shown) [CP-70,828]", "values": [
      {"measurement": "antibiotic / anticoccidial effectiveness", "setting": "coccidiosis", "value": "antibiotically effective in controlling coccidiosis"}
    ]},
    {"compound": "COC1CCC(OC2CC(C3OC(C)(O)C(C)CC3C)OC2C2(C)CCC(C3(C)CCC4(CC(O)C(C)C(C(C)C5OC(O)(CC(=O)O)C(C)C(OC6CCC(OC)C(C)O6)C5OC)O4)O3)O2)OC1C", "note": "(stereo not shown) [UK-58,852]", "values": [
      {"measurement": "antibiotic / anticoccidial effectiveness", "setting": "coccidiosis", "value": "effective antibiotic, especially anticoccidial agent"}
    ]},
    {"compound": "COC1CCC(OC2CC(C3OC(C)(O)C(C)CC3C)OC2C2(C)CCC(C3(C)CCC4(CC(O)C(C)C(C(C)C5OC(O)(CC(=O)O)C(C)C(O)C5OC)O4)O3)O2)OC1C", "note": "(stereo not shown) [UK-61,689]", "values": [
      {"measurement": "inhibitory action against the growth of Gram-positive microorganisms", "setting": "[1]", "value": "exhibits inhibitory action against the growth of a number of Gram-positive microorganisms"},
      {"measurement": "controlling infections due to E. brunetti", "setting": "E. brunetti", "value": "effective in controlling infections"},
      {"measurement": "MIC", "setting": "Treponema hyodysenteriae; Brachyspira hyodysenteriae, 24 h, Treponema hyodysenteriae strain 94A001", "value": 3.12, "unit": "µg/mL"},
      {"measurement": "MIC", "setting": "Treponema hyodysenteriae; Brachyspira hyodysenteriae, 24 h, Treponema hyodysenteriae strain 94A002", "value": 3.12, "unit": "µg/mL"},
      {"measurement": "MIC", "setting": "Treponema hyodysenteriae; Brachyspira hyodysenteriae, Treponema hyodysenteriae strain 94A007, 24 hours, read-out: MIC", "value": 1.56, "unit": "µg/mL"},
      {"measurement": "MIC", "setting": "Treponema hyodysenteriae; Treponema hyodysenteriae strain 94A008, 24 hours", "value": 1.56, "unit": "µg/mL"},
      {"measurement": "controlling infections due to E. acervulina", "setting": "E. acervulina", "value": "effective in controlling infections"},
      {"measurement": "controlling infections due to E. necatrix", "setting": "E. necatrix", "value": "effective in controlling infections"},
      {"measurement": "MIC", "setting": "Clostridium perfringens; Clostridium perfringens strain 10A006", "value": 50, "unit": "µg/mL"},
      {"measurement": "MIC", "setting": "Clostridium perfringens; Clostridium perfringens strain 10A009", "value": 12.5, "unit": "µg/mL"},
      {"measurement": "activity against coccidial infections in poultry", "setting": "[2]", "value": "excellent activity"},
      {"measurement": "controlling infections due to E. maxima", "setting": "E. maxima", "value": "effective in controlling infections"},
      {"measurement": "controlling infections due to Eimeria tenella", "setting": "Eimeria tenella", "value": "effective in controlling infections"},
      {"measurement": "MIC", "setting": "Actinomyces pyogenes; Actinomyces pyogenes strain 14D008", "value": 50, "unit": "µg/mL"},
      {"measurement": "MIC", "setting": "Actinomyces pyogenes; Actinomyces pyogenes strain 14D011", "value": 50, "unit": "µg/mL"},
      {"measurement": "MIC", "setting": "Actinomyces pyogenes; Trueperella pyogenes, Actinomyces pyogenes strain 14D002, read-out: MIC", "value": 50, "unit": "µg/mL"}
    ]}
  ]
}
